Experimental data from the supplement of paper PMC13380429.

Assays:
Settings in all cases: 72 h
Caco-2 [1] = experiment: cell viability relative to DMSO; higher = less toxic
Calu-3 [2] = experiment: as above
HepG2 [3] = experiment: as above
U2OS [4] = experiment: as above
Caco-2 [5] = experiment: relative viability EC50 (midpoint between 100% and the lowest measured viability); higher = less toxic
Calu-3 [6] = experiment: as above
HepG2 [7] = experiment: as above
U2OS [8] = experiment: as above
Caco-2 [9] = experiment: drug sensitivity score (DSS) for viability; higher = more toxic; extreme values may be limits of the assay
Calu-3 [10] = experiment: as above
HepG2 [11] = experiment: as above
U2OS [12] = experiment: as above
Vero E6 [13] = experiment: as above
Vero E6 [14] = experiment: cell viability relative to DMSO; higher = less toxic

| SMILES | cell viability (Caco-2 [1]; 1 nM) | cell viability (Caco-2 [1]; 10 nM) | cell viability (Caco-2 [1]; 100 nM) | cell viability (Caco-2 [1]; 1000 nM) | cell viability (Caco-2 [1]; 10000 nM) | cell viability (Calu-3 [2]; 1 nM) | cell viability (Calu-3 [2]; 10 nM) | cell viability (Calu-3 [2]; 100 nM) | cell viability (Calu-3 [2]; 1000 nM) | cell viability (Calu-3 [2]; 10000 nM) | cell viability (HepG2 [3]; 1 nM) | cell viability (HepG2 [3]; 10 nM) | cell viability (HepG2 [3]; 100 nM) | cell viability (HepG2 [3]; 1000 nM) | cell viability (HepG2 [3]; 10000 nM) | cell viability (U2OS [4]; 1 nM) | cell viability (U2OS [4]; 10 nM) | cell viability (U2OS [4]; 100 nM) | cell viability (U2OS [4]; 1000 nM) | cell viability (U2OS [4]; 10000 nM) | relative viability EC50 (Caco-2 [5]) | relative viability EC50 (Calu-3 [6]) | relative viability EC50 (HepG2 [7]) | relative viability EC50 (U2OS [8]) | drug sensitivity score (Caco-2 [9]) | drug sensitivity score (Calu-3 [10]) | drug sensitivity score (HepG2 [11]) | drug sensitivity score (U2OS [12]) | drug sensitivity score (Vero E6 [13]) | cell viability (Vero E6 [14]; 1 nM) | cell viability (Vero E6 [14]; 10 nM) | cell viability (Vero E6 [14]; 100 nM) | cell viability (Vero E6 [14]; 1000 nM) | cell viability (Vero E6 [14]; 10000 nM) |
| --- | --- | --- | --- | --- | --- | --- | --- | --- | --- | --- | --- | --- | --- | --- | --- | --- | --- | --- | --- | --- | --- | --- | --- | --- | --- | --- | --- | --- | --- | --- | --- | --- | --- | --- |
| Cc1ccc(S(=O)(=O)NCl)cc1 [chloramine-T] | 99.5% | 104% | 92.2% | 101% | 99.2% | 102% | 107% | 92.2% | 101% | 92.6% | 101% | 98.5% | 104% | 102% | 102% | 105% | 97.7% | 105% | 99.1% | 99.4% | > 10 µM | > 10 µM | > 10 µM | > 10 µM | 0 | 0 | 0 | 0 |  |  |  |  |  |  |
| Cc1ncc([N+](=O)[O-])n1CC(C)O (centres undefined) [secnidazole] |  |  |  |  |  |  |  |  |  |  |  |  |  |  |  |  |  |  |  |  |  |  |  |  |  | 0.4 | 0 | 0 | 0 |  |  |  |  |  |
| CO[C@H]1C[C@H](O[C@H]2[C@H](C)O[C@@H](O[C@@H]3/C(C)=C/C[C@@H]4C[C@@H](C[C@]5(C=C[C@H](C)[C@@H](C6CCCCC6)O5)O4)OC(=O)[C@@H]4C=C(C)[C@@H](O)[C@H]5OC/C(=C\C=C\[C@@H]3C)[C@]54O)C[C@@H]2OC)O[C@@H](C)[C@@H]1O [doramectin] | 102% | 92.9% | 93.9% | 96.8% | 62.5% | 102% | 95.4% | 105% | 93.8% | 75% | 112% | 104% | 98.1% | 108% | 44.9% | 98.1% | 95.7% | 92.6% | 88.5% | 56.6% |  | > 10 µM | 3.76 µM |  | 2.3 | 1.8 | 2.5 | 3.7 | 1.4 | 103% | 96.3% | 91.1% | 98.1% | 72.4% |
| CC(C)(C)C1CCc2c(sc(NC(=O)c3ccco3)c2C(=O)O)C1 (centres undefined) [CaCCinh-A01] | 102% | 103% | 97.1% | 97.8% | 82.2% | 91.2% | 99.5% | 103% | 96.4% | 99.6% | 115% | 90.8% | 103% | 87.2% | 69.3% | 98.8% | 101% | 96.2% | 97.1% | 98% | > 10 µM | > 10 µM |  | > 10 µM | 0.7 | 0 | 3 | 0 | 1.3 | 98.8% | 98.8% | 106% | 98.5% | 72.9% |
| Cc1c(N)nc([C@H](CC(N)=O)NC[C@H](N)C(N)=O)nc1C(=O)N[C@H](C(=O)N[C@H](C)[C@@H](O)[C@H](C)C(=O)N[C@H](C(=O)NCCc1nc(-c2nc(C(=O)NCCCNCCCCN)cs2)cs1)[C@@H](C)O)[C@@H](O[C@@H]1O[C@@H](CO)[C@@H](O)[C@H](O)[C@@H]1O[C@@H]1O[C@H](CO)[C@@H](O)[C@H](OC(N)=O)[C@@H]1O)c1cnc[nH]1 [bleomycetin] | 106% | 102% | 100% | 90.9% | 78.7% | 94% | 95.4% | 93.1% | 76.5% | 51.3% | 99.4% | 104% | 98.1% | 82.7% | 59.9% | 101% | 97.7% | 99.8% | 83.3% | 68.7% | > 10 µM |  |  |  | 1.7 | 5.2 | 4 | 3.4 | 3.9 | 106% | 103% | 106% | 82.4% | 64.2% |
| CC(=O)N[C@@H](CC(C)C)C(=O)O [acetyl-l-leucine] | 95.7% | 103% | 85% | 80.3% | 96.6% |  |  |  |  |  | 95.8% | 99.2% | 98.4% | 88.3% | 94.7% | 101% | 99.9% | 95.2% | 101% | 96.2% | > 10 µM |  | > 10 µM | > 10 µM | 4.1 |  | 0 | 0 |  |  |  |  |  |  |
